From patent US5705487A, “Antithrombotic agents” (priority 1995, dated 1998)
Structures can show the parent of a compound that is named as a salt.

Assays:
Assay type in all cases: biochemical
Human plasmin = biological target: T1, Human plasmin (Homo sapiens, UniProt P00747); test: Kass, plasmin chromogenic substrate assay; conditions: substrate H-D-Val-Leu-Lys-p-nitroanilide
T1 construct: Human plasmin is purchased from Boehringer Mannheim; purchased Boehringer Mannheim, Indianapolis, Ind
Procedure: (§2) By substantially following the procedures described above for human thrombin, and using other human blood coagulation system serine proteases and proteases of the fibrinolytic system with the appropriate chromogenic substrates, identified below, selectivity of the compounds of the present invention with respect to the coagulation factor serine proteases and with respect to the fibrinolytic system serine proteases are evaluated as well as their substantial lack of interference with serine proteases of the fibrinolytic system.
(§3) Human plasmin is purchased from Boehringer Mannheim, Indianapolis, Ind.; nt-PA is purchased as single chain activity reference from American Diagnostica, Greenwich, Conn.; modified-t-PA6 (mt-PA6) is prepared at Eli Lilly and Company by procedure known in the art (See, Burck, et al., J. Biol. Chem., 265, 5120-5177 (1990). Plasmin chromogenic substrate H-D-Val-Leu-Lys-p-nitroanilide and tissue plasminogen activator (t-PA) substrate H-D-Ile-Pro-Arg-p-nitroanilide are purchased from Kabi Vitrum, Stockholm, Sweden.

Human Thrombin = Human Thrombin (Homo sapiens, UniProt P00734); test: Inhibition of the amidase activity of thrombin (Kass); conditions: chromogenic substrate N-benzoyl-Phe-Val-Arg-p-nitroanilide; mean over range of concentrations
t-PA = biological target: T2, t-PA (Homo sapiens, UniProt P00750); test: Kass, t-PA chromogenic substrate assay; conditions: substrate H-D-Ile-Pro-Arg-p-nitroanilide
T2 construct: purchased American Diagnostica, Greenwich, Conn
T2 sequence (P00750 36-562): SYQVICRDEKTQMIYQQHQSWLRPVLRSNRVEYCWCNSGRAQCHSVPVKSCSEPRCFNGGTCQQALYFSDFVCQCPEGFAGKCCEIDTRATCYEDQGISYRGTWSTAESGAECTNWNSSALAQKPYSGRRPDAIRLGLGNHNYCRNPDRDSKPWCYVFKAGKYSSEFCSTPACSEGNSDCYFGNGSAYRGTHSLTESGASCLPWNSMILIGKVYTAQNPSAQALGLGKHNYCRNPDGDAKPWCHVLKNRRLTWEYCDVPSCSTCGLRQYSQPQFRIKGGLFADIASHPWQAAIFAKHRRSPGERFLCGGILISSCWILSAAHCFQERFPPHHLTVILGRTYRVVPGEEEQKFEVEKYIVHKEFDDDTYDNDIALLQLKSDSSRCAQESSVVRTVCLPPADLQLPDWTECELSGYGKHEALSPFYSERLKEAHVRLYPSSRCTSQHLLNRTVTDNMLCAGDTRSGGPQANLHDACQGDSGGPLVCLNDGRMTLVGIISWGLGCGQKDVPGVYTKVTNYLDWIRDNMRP
Procedure: as §2, §3

Bovine trypsin = biological target: T3, Bovine trypsin (Bos taurus, UniProt P00760); test: Kass, trypsin chromogenic substrate assay; conditions: substrate N-Benzoyl-Phe-Val-Arg-p-nitroanilide
T3 construct: Bovine trypsin is purchased from Worthington Biochemicals; purchased Worthington Biochemicals, Freehold, N.J
T3 sequence (P00760 24-246): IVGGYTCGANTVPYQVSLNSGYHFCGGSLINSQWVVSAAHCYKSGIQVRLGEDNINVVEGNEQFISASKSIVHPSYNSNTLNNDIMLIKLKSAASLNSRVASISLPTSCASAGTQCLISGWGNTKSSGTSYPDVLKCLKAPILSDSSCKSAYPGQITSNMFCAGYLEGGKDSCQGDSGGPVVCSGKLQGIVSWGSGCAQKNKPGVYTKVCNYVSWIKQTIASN
Procedure: as §2
(§4) Chromogenic substrates: N-Benzoyl-Ile-Glu-Gly-Arg-p-nitroanilide (for factor Xa); N-Cbz-D-Arg-Gly-Arg-p-nitroanilide (for factor IXa assay as the factor Xa substrate); Pyroglutamyl-Pro-Arg-p-nitroanilide (for Factor XIa and for aPC); H-D-Pro-Phe-Arg-p-nitroanilide (for factor XIIa); and Pyroglutamyl-Gly-Arg-p-nitroanilide (for urokinase); are purchased from KabiVirum, Stockholm, Sweden, or from Midwest Biotech, Fishers, Ind. Bovine trypsin is purchased from Worthington Biochemicals, Freehold, N.J., and human plasma kallikrein from Kabi Vitrum, Stockholm, Sweden. […] N-Benzoyl-Phe-Val-Arg-p-nitroanilide, the substrate for human thrombin and for trypsin, is synthesized according to procedures described above for the compounds of the present invention, using known methods of peptide coupling from commercially available reactants or purchased from Midwest Biotech, Fishers, Ind.

factor Xa = biological target: T4, factor Xa (Homo sapiens, UniProt P00742); test: Kass, factor Xa chromogenic substrate assay; conditions: substrate N-Benzoyl-Ile-Glu-Gly-Arg-p-nitroanilide
T4 construct: Human factors X, Xa, IXa, XIa, and XIIa are purchased; purchased Enzyme Research Laboratories, South Bend, Ind
T4 sequence (P00742 235-488 limits assumed): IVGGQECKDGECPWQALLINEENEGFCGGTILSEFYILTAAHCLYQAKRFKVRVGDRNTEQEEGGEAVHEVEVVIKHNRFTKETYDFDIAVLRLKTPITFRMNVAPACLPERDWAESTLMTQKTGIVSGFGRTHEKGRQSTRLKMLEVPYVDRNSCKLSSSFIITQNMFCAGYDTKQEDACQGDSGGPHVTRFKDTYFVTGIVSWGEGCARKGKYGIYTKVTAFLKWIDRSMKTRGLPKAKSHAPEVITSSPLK
T4 sequence (P00742 41-179 partner limits assumed): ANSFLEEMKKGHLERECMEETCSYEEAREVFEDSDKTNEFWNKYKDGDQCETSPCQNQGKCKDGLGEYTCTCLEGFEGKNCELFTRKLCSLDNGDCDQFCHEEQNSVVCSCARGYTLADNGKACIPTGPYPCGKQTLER
Procedure: as §2, §4

Human Plasma [1] = test: Human plasma anticoagulation, prothrombin time (PT); conditions: concentration required to double the clotting time
Outline: (§1)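 Prolongation of human plasma clotting was measured for PT (thromboplastin reagent), APTT (Actin, 120 s, then 0.02M CaCl2) and TT (bovine thrombin, 10 NIH units/mL). Concentration needed for a doubled time was estimated by linear extrapolation.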

Human Plasma [2] = test: Human plasma anticoagulation, activated partial thromboplastin time (APTT); conditions: concentration required to double the clotting time
Outline: as §1

Human Plasma [3] = test: Human plasma anticoagulation, thrombin time (TT); conditions: concentration required to double the clotting time
Outline: as §1

T1 sequence (P00747 581-810 limits assumed): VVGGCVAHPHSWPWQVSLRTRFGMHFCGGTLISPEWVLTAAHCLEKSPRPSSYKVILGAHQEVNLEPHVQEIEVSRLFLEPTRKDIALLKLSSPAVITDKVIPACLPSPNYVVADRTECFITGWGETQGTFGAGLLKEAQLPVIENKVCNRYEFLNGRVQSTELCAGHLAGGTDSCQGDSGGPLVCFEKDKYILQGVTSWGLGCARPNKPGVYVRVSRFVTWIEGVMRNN
T1 sequence (P00747 97-580 partner limits assumed): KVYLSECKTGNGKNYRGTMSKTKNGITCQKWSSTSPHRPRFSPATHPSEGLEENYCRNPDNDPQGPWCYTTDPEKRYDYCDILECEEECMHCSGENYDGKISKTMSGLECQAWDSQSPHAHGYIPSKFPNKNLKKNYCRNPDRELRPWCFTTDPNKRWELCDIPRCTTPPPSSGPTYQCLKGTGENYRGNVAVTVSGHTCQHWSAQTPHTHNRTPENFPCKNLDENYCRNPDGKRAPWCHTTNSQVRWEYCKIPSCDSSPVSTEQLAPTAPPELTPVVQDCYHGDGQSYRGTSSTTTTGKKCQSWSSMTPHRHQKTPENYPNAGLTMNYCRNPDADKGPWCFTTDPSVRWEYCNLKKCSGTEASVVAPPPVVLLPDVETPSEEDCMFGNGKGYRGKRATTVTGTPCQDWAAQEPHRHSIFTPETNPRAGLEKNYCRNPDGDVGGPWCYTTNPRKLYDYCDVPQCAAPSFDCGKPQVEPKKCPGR

Compound	Kass × 10^6 (L/mole) Plasmin (Human plasmin)	Kass × 10^6 (L/mole) Human Thrombin (Human Thrombin)	Kass × 10^6 (L/mole) t-PA (t-PA)	Kass × 10^6 (L/mole) Trypsin (Bovine trypsin)	Kass × 10^6 (L/mole) Xa (factor Xa)	Human Plasma Anticoagulation 2x Clotting time PT (Human Plasma [1])	Human Plasma Anticoagulation 2x Clotting time APTT (Human Plasma [2])	Human Plasma Anticoagulation 2x Clotting time TT (Human Plasma [3])
Cl.O=C(O)CN[C@H](CC1CCCCC1)C(=O)N1CCC[C@H]1C(=O)NCCCC1=CCNCC1 [Example 60, HO2 CCH2 -D-Cha-Pro-4-NHCH2 CH2 CH2 -3,4-dehydro-piperidine.HCl]	< 0.001 × 10^6 L/mole	0.24 × 10^6 L/mole	< 0.001 × 10^6 L/mole	0.03 × 10^6 L/mole	< 0.001 × 10^6 L/mole	77,700 ng/mL	22,200 ng/mL	3,200 ng/mL
EtSO2 -D-Phe-Pro-p-NHCH2 CH2 C6 H4 CNH(NH)NH2.HCl [Example 35]	< 0.001 × 10^6 L/mole	0.09 × 10^6 L/mole	< 0.001 × 10^6 L/mole	0.04 × 10^6 L/mole	< 0.001 × 10^6 L/mole	78,400 ng/mL	50,400 ng/mL	4,500 ng/mL
N=C(N)c1cccc(CCNC(=O)[C@@H]2CCCN2C(=O)[C@@H]2NCC[C@@H]3CCCC[C@@H]32)c1 [Example 29, 1-Piq-Pro-m-NHCH2 CH2 -C6 H4 C(=NH)NH2.2HCl]	< 0.001 × 10^6 L/mole	0.76 × 10^6 L/mole	< 0.001 × 10^6 L/mole	0.02 × 10^6 L/mole	0.02 × 10^6 L/mole	15,800 ng/mL	9,800 ng/mL	750 ng/mL
Cl.N=C(N)N1CCC(CNC(=O)[C@@H]2CCCN2C(=O)[C@@H](CC2CCCCC2)NCC(=O)O)CC1 [Example 56, HO2 CCH2 -D-Cha-Pro-4-NHCH2 -1-amidinopiperidine.HCl]	0.01 × 10^6 L/mole	490 × 10^6 L/mole	< 0.001 × 10^6 L/mole	3.6 × 10^6 L/mole	0.20 × 10^6 L/mole	200 ng/mL	160 ng/mL	5 ng/mL
CCS(=O)(=O)N[C@H](Cc1ccccc1)C(=O)N1CCC[C@H]1C(=O)NCc1ccc(NC(=N)N)cc1 [Example 34, EtSO2 -D-Phe-Pro-p-NHCH2 C6 H4 NHC(NH)NH2.HCl]	0.01 × 10^6 L/mole	0.65 × 10^6 L/mole	0.01 × 10^6 L/mole	0.49 × 10^6 L/mole	< 0.001 × 10^6 L/mole	5,500 ng/mL	4,900 ng/mL	530 ng/mL
N=C(N)c1cccc(CNC(=O)[C@@H]2CCCN2C(=O)[C@@H]2NCC[C@@H]3CCCC[C@@H]32)c1 [Example 25, D-1-Piq-Pro-m-NHCH2 -C6 H4 C(=NH)NH2.HCl]	< 0.001 × 10^6 L/mole	0.43 × 10^6 L/mole	0.01 × 10^6 L/mole	0.01 × 10^6 L/mole	< 0.001 × 10^6 L/mole	40,400 ng/mL	34,600 ng/mL	1,430 ng/mL
Cl.Cl.N=C(N)c1ccc(CNC(=O)C2CC3CCCCC3N2C(=O)C2NCCC3CCCCC32)cc1 [Example 42, D-1-Piq-cis-Ohi-p-NHCH2 C6 H4 C(NH)NH2.2HCl]	0.12 × 10^6 L/mole	38. × 10^6 L/mole	0.01 × 10^6 L/mole	43. × 10^6 L/mole	0.07 × 10^6 L/mole	320 ng/mL	270 ng/mL	20 ng/mL
Cl.O=C(O)CN[C@H](CC1CCCCC1)C(=O)N1CCC[C@H]1C(=O)NCC1=CCNCC1 [Example 58, HO2 CCH2 -D-Cha-Pro-4-NHCH2 -3,4-dehydropiperidine.HCl]	< 0.001 × 10^6 L/mole	0.60 × 10^6 L/mole	< 0.001 × 10^6 L/mole	0.40 × 10^6 L/mole	< 0.001 × 10^6 L/mole	11,400 ng/mL	14,300 ng/mL	710 ng/mL
CCS(=O)(=O)N[C@H](Cc1ccccc1)C(=O)N1[C@H](C(=O)NCc2ccc(C(=N)N)cc2)C[C@@H]2CCCC[C@@H]21 (relative stereo) [Example 45, EtSO2 -Phe-cis-Ohi-p-NHCH2 C6 H4 C(NH)NH2.HCl]	1.1 × 10^6 L/mole	610 × 10^6 L/mole	0.77 × 10^6 L/mole	110. × 10^6 L/mole	1.5 × 10^6 L/mole	330 ng/mL	200 ng/mL	8 ng/mL
N=C(N)c1ccc(CNC(=O)[C@@H]2C[C@H](Oc3ccccc3)CN2C(=O)[C@H]2CCCCN2)cc1 (relative stereo) [Example 22, D-hPro-Pro(4-cis-PhO)-P-NHCH2 -C6 H4 C(NH)NH2.2HCl]	0.042 × 10^6 L/mole	3.0 × 10^6 L/mole	0.004 × 10^6 L/mole	8.5 × 10^6 L/mole	0.043 × 10^6 L/mole	1,000 ng/mL	2,300 ng/mL	170 ng/mL
Cl.N=C(N)c1ccc(CNC(=O)[C@@H]2CCCN2C(=O)[C@@H](CC2CCCCC2)NCCC(=O)O)cc1 [Example 52, HOOCCH2 CH2 -D-Cha-Pro-p-NHCH2 C6 H4 C(NH)NH2.HCl]	0.11 × 10^6 L/mole	700 × 10^6 L/mole	0.01 × 10^6 L/mole	47. × 10^6 L/mole	0.46 × 10^6 L/mole	170 ng/mL	80 ng/mL	6 ng/mL
Cl.N=C(N)c1cccc(CNC(=O)[C@@H]2CCCN2C(=O)[C@H](N)Cc2ccccc2)c1 [Example 16, D-Phe-Pro-m-NHCH2 C6 H4 C(NH)NH2.0.75HCl]	0.0017 × 10^6 L/mole	0.97 × 10^6 L/mole	0.0012 × 10^6 L/mole	0.02 × 10^6 L/mole	0.0051 × 10^6 L/mole	8,500 ng/mL	8,600 ng/mL	650 ng/mL
